Patent US20020025940A1, “Methods and compositions for sensitive and rapid, functional identification of genomic polynucleotides and use for cellular assays in drug discovery” (Aurora Biosciences Corporation, priority 1997, published 2002)

What was measured:
Format in all cases: cell-based, human
[1] = system: induced BLEC Jurkat clones; test: Characterization of induced BLEC Jurkat clones, change in 460/530 ratio; conditions: PHA 10 microgram/ml, Thaps 1 microM, PMA 8 nM, Anti-CD3 2 microgram/ml
Description: These clones represent cells in which the trapping construct had integrated into a gene up regulated by PHA (T-cell) activation. Thus, these cells report the transcriptional activation of a gene upon cellular activation. Individual clones were identified and isolated by FACS using CCF2/AM to detect beta-lactamase activity. This clone isolation method, the induced sorting paradigm, used three sequential and independent stimulation and sorting protocols. […] These control cells were all green.
These isolated clones were expanded and tested for PHA inducibility by microscopic inspection with and without PHA stimulation in the presence of CCF2/AM. A total of fifty-five PHA inducible clones were identified using this procedure. The PHA inducibility for these clones ranged from a 1.5 to 40 fold change in the 460/530 ratio as compared to unstimulated control cells. Genomic Southern analysis using a DNA probe encoding beta-lactamase established that these clones represented 34 independent stable vector integration events. A list of clones obtained by the methods of the present invention and their characteristics is provided below in Table 6 and Table 7.
In addition to PHA inducible clones, Phobol 12-myristate 13-acetate (PMA) (Calbiochem), Thapsigargin (Thaps) (Calbiochem), and PMA+Thaps inducible clones were isolated using the general procedure set forth above using the indicated inducer rather than PHA. PMA is a specific activator of PKC (protein kinase C) and Thaps is a specific activator of intracellular calcium ion release (Thaps). These clones were isolated using three rounds of FACS using the general procedures described for the PHA inducible clones in Example 5. In such instances, other stimulants were substituted for PHA. PMA was provided at 8 nM, Thaps was provided at 1 microM. When these two stimulants were combined, their concentration was not changed. […] By using varied selection conditions, it is possible to isolate functionally distinct clones downstream of the desired signaling target.
Table 7 and Table 8 provide data similar to that provided in Table 5 for all of the clones obtained by the methods of Examples 5 to 7.

BLEC Jurkat clones = test: Specificity of activated BLEC Jurkat clones, relative beta-lactamase activity; conditions: PMA 8 nM, Thaps 1 microM, CsA 100 nM, PHA 10 microgram/ml
Description: (§1) Isolated clones from PHA-induced (Example 6) and PHA-repressed (Example 7) procedures described above were characterized to determine the specificity of their modulation and time required for induction or repression. Clones were stimulated with multiple activators or inhibitors over a one to twenty-four hour time interval.
(§2) In this study, PMA, which is a PKC activator, Thapsigargin which increases intracellular calcium, PHA which activates the T-cell receptor pathway, and cyclosporin A which is a clinically approved immunosuppressant that inhibits the Ca^2+ dependent phosphates calcineurin were investigated for their ability to modulate beta-lactamase expression in PHA induced and repressed BLEC clones.

[2] = system: clone C2 (3×NFAT response element linked to beta-lactamase, M1 muscurinic receptor); test: Relative beta-lactamase activity of control clone C2; conditions: PMA 8 nM, Thaps 1 microM, CsA 100 nM, PHA 10 microgram/ml
Description: as §1, §2

C/C=C(/C)C(=O)O[C@H]1C(C)=C2[C@H]([C@@H]1OC(=O)CCCCCCC)[C@@](C)(OC(C)=O)C[C@H](OC(=O)CCC)[C@@]1(O)[C@H]2OC(=O)[C@@]1(C)O [Thaps, Thapsigargin]
5%: Relative Beta-Lactamase Activity of the Clone by the Indicated Stimulus After 24 hours (% of maximum activated stimuli) (BLEC Jurkat clones; clone J389-PTI4)
1-2: Change in 460/530 ratio in the indicated clone by the following activator ([1]; clone J83PI2) | Change in 460/530 ratio in the indicated clone by the following activator ([1]; clone J83PI8) | Change in 460/530 ratio in the indicated clone by the following activator ([1]; clone J83PI16) | Change in 460/530 ratio in the indicated clone by the following activator ([1]; clone J83PI19) | Change in 460/530 ratio in the indicated clone by the following activator ([1]; clone J97PI3) | Change in 460/530 ratio in the indicated clone by the following activator ([1]; clone J97PI4) | Change in 460/530 ratio in the indicated clone by the following activator ([1]; clone J325B11) | Change in 460/530 ratio in the indicated clone by the following activator ([1]; clone J326C9)
5-6: Change in 460/530 ratio in the indicated clone by the following activator ([1]; clone J83PI9) | Change in 460/530 ratio in the indicated clone by the following activator ([1]; clone J97PI11) | Change in 460/530 ratio in the indicated clone by the following activator ([1]; clone J97PI12) | Change in 460/530 ratio in the indicated clone by the following activator ([1]; clone J97PI13)
1.9: Change in 460/530 ratio in the indicated clone by the following activator ([1]; clone J97PI5)
5-7: Change in 460/530 ratio in the indicated clone by the following activator ([1]; clone J97PI22)
6-7: Change in 460/530 ratio in the indicated clone by the following activator ([1]; clone J83PI3)
85%: Relative Beta-Lactamase Activity of the Clone by the Indicated Stimulus After 24 hours (% of maximum activated stimuli) (BLEC Jurkat clones; clone J83 97-PPTR2 (repressed paradigm))
0: Change in 460/530 ratio in the indicated clone by the following activator ([1]; clone J326D4)
3-4: Change in 460/530 ratio in the indicated clone by the following activator ([1]; clone J83PI1) | Change in 460/530 ratio in the indicated clone by the following activator ([1]; clone J83PI4) | Change in 460/530 ratio in the indicated clone by the following activator ([1]; clone J97PI1) | Change in 460/530 ratio in the indicated clone by the following activator ([1]; clone J97PI8) | Change in 460/530 ratio in the indicated clone by the following activator ([1]; clone J97PI10) | Change in 460/530 ratio in the indicated clone by the following activator ([1]; clone J97PI14) | Change in 460/530 ratio in the indicated clone by the following activator ([1]; clone J97PI15) | Change in 460/530 ratio in the indicated clone by the following activator ([1]; clone J97PI18) | Change in 460/530 ratio in the indicated clone by the following activator ([1]; clone J97PI24) | Change in 460/530 ratio in the indicated clone by the following activator ([1]; clone J97PI116) | Change in 460/530 ratio in the indicated clone by the following activator ([1]; clone J389PM2) | Change in 460/530 ratio in the indicated clone by the following activator ([1]; clone J389PM5) | Change in 460/530 ratio in the indicated clone by the following activator ([1]; clone J389PM8) | Change in 460/530 ratio in the indicated clone by the following activator ([1]; clone J389PTt) | Change in 460/530 ratio in the indicated clone by the following activator ([1]; clone J389TI4)
2: Change in 460/530 ratio in the indicated clone by the following activator ([1]; clone J83PI7) | Change in 460/530 ratio in the indicated clone by the following activator ([1]; clone J83PI14) | Change in 460/530 ratio in the indicated clone by the following activator ([1]; clone J83PI15)
1-2%: Relative Beta-Lactamase Activity of the Clone by the Indicated Stimulus After 24 hours (% of maximum activated stimuli) (BLEC Jurkat clones; clone J32-6D4)
4-6: Change in 460/530 ratio in the indicated clone by the following activator ([1]; clone J97PI6)
0%: Relative Beta-Lactamase Activity of the Clone by the Indicated Stimulus After 24 hours (% of maximum activated stimuli) [2]
7-8: Change in 460/530 ratio in the indicated clone by the following activator ([1]; clone J83PI6) | Change in 460/530 ratio in the indicated clone by the following activator ([1]; clone J83PI18) | Change in 460/530 ratio in the indicated clone by the following activator ([1]; clone J97PI17)
10: Change in 460/530 ratio in the indicated clone by the following activator ([1]; clone J389PT4)
100%: Relative Beta-Lactamase Activity of the Clone by the Indicated Stimulus After 24 hours (% of maximum activated stimuli) (BLEC Jurkat clones; clone J83-PI9) | Relative Beta-Lactamase Activity of the Clone by the Indicated Stimulus After 24 hours (% of maximum activated stimuli) (BLEC Jurkat clones; clone J83-PTI8)
4-5: Change in 460/530 ratio in the indicated clone by the following activator ([1]; clone J97PI7) | Change in 460/530 ratio in the indicated clone by the following activator ([1]; clone J97PI9) | Change in 460/530 ratio in the indicated clone by the following activator ([1]; clone J97PI23)
2-3: Change in 460/530 ratio in the indicated clone by the following activator ([1]; clone J83PI13) | Change in 460/530 ratio in the indicated clone by the following activator ([1]; clone J97PI19) | Change in 460/530 ratio in the indicated clone by the following activator ([1]; clone J97PI20) | Change in 460/530 ratio in the indicated clone by the following activator ([1]; clone J97PI21) | Change in 460/530 ratio in the indicated clone by the following activator ([1]; clone J389PM3) | Change in 460/530 ratio in the indicated clone by the following activator ([1]; clone J389PM7) | Change in 460/530 ratio in the indicated clone by the following activator ([1]; clone J389TI1)
